Measured values: patent US12421282B2, “Compositions and methods for the treatment of metabolic and liver disorders” (priority 2021, dated 2025)
Read-outs that look alike come from different tables or passages of the source. *1 amine or outer side, *2 acyl side, *3 side chain or, on linkers, in order; H or OH if unused. Where a SMILES comes first, the peptide text is derived from it. Side-chain parts run from the residue outwards. [ ]: non-standard residue; d: D form. The star is where a group is joined. Nonadecanoyl(19-PO3H2) = O=C(CCCCCCCCCCCCCCCCCCP(=O)(O)O)*; γGlu = O=C(O)[C@H](CCC(=O)[*:2])N[*:1]; AEEA = NCCOCCOCC(=O)O; Aib = CC(C)(N)C(=O)O

Experiments:
[1] = target: human recombinant GLP-1 receptor (Homo sapiens, UniProt P43220); assay: TagLite binding assay, GLP-1 receptor, without and with 2% HSA
Excerpt: (§1) Binding data for Compounds 15-25, for two human recombinant G protein coupled receptors, GLP-1 and GIP, was obtained using […]® binding assay and Epics Therapeutics cell lines. The binding assay was repeated in the presence of 2% human serum albumin (HSA). Compounds 16, 21, and 22 have an HSA ratio for the GLP-1 receptor of 7.1, 7.6, and 7.8, respectively. Compounds 15, 18, and 23 have an HSA ratio for the GIP receptor of 7.3, 4.3, and 6.4, respectively. A lower HSA ratio indicates greater binding affinity for the receptor than for albumin when compared to a compound with a greater HSA ratio.

[2] = target: T1, human recombinant GIP receptor (Homo sapiens, UniProt P48546); assay: TagLite binding assay, GIP receptor, without and with 2% HSA
T1 sequence (P48546 22-466): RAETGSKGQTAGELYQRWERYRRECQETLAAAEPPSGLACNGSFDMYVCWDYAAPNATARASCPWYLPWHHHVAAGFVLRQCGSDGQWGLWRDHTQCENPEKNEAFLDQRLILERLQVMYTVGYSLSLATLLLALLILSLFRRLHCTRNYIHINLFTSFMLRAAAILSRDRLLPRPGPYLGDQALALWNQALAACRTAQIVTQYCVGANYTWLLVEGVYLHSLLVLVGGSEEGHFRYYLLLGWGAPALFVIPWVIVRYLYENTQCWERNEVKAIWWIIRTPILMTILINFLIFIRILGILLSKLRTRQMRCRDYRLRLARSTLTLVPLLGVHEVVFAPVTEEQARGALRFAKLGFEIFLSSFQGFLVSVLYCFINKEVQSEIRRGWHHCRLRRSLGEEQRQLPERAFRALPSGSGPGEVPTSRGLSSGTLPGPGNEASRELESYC
Excerpt: as §1

[3] = parameters: species or system cynomolgus monkeys; settings: cynomolgus monkey, in vivo, sc, 0.2 mg/kg
Description: Subcutaneous (SC) dosing of the compounds in a vehicle of 0.1% bovine serum albumin in phosphate buffered saline solution was performed with male cynomolgus monkeys. […] Samples were obtained at 1, 4, 8, 12, 24, 48, 72, 96, 120, 168, 192, 240 and 336 hours after the single dose was administered.

[4] = 2% human serum albumin, read-out: GLP-1 receptor IC50 2% HSA
[5] = no HSA, read-out: GLP-1 receptor IC50 No HSA
[6] = 2% human serum albumin, read-out: GIP receptor IC50 2% HSA
[7] = no HSA, read-out: GIP receptor IC50 No HSA

human recombinant GLP-1 receptor, sequence (P43220 24-463): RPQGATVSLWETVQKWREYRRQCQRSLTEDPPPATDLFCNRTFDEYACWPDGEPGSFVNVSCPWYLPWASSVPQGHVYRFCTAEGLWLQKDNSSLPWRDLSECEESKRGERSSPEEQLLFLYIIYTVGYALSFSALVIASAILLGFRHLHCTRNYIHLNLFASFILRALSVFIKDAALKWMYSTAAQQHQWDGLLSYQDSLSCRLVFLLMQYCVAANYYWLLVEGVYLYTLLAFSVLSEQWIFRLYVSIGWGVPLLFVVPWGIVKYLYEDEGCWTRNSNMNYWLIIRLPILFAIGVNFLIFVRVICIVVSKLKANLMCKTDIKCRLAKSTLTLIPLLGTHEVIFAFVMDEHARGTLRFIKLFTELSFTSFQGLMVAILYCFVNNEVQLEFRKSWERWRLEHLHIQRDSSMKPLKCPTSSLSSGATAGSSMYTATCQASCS

Row | Structure (SMILES) | IC50 [1, 4] [nM] | IC50 [1, 5] [nM] | IC50 [2, 6] [nM] | IC50 [2, 7] [nM] | AUC(0-inf) [3] [µg·h/mL] | AUC(0-t) [3] [µg·h/mL] | Cmax [3] [ng/mL] | Tmax [3] [h] | half-life [3] [h] | mean half life longer compared to tirzepatide [3] | mean half life as compared to tirzepatide (in words) [3]
1 | CC[C@H](C)[C@H](NC(=O)[C@H](CC(C)C)NC(=O)[C@H](Cc1c[nH]c2ccccc12)NC(=O)[C@H](CCC(N)=O)NC(=O)[C@@H](NC(=O)[C@H](Cc1ccccc1)NC(=O)[C@H](C)NC(=O)[C@H](CCCCNC(=O)COCCOCCNC(=O)COCCOCCNC(=O)CC[C@H](NC(=O)CCCCCCCCCCCCCCCCCCP(=O)(O)O)C(=O)O)NC(=O)[C@H](CCC(N)=O)NC(=O)[C@H](C)NC(=O)[C@@H](NC(=O)[C@H](CCCCN)NC(=O)[C@H](CC(=O)O)NC(=O)[C@H](CC(C)C)NC(=O)C(C)(C)NC(=O)[C@@H](NC(=O)[C@H](CO)NC(=O)[C@H](Cc1ccc(O)cc1)NC(=O)[C@H](CC(=O)O)NC(=O)[C@H](CO)NC(=O)[C@@H](NC(=O)[C@H](Cc1ccccc1)NC(=O)[C@@H](NC(=O)CNC(=O)[C@H](CCC(=O)O)NC(=O)C(C)(C)NC(=O)[C@@H](N)Cc1ccc(O)cc1)[C@@H](C)O)[C@@H](C)O)[C@@H](C)CC)C(C)C)C(C)C)C(=O)N[C@@H](C)C(=O)NCC(=O)NCC(=O)N1CCC[C@H]1C(=O)N[C@@H](CO)C(=O)N[C@@H](CO)C(=O)NCC(=O)N[C@@H](C)C(=O)N1CCC[C@H]1C(=O)N1CCC[C@H]1C(=O)N1CCC[C@H]1C(=O)N[C@@H](CO)C(N)=O [Compound 17] (H-Y[Aib]EGTFTSDYSI[Aib]LDKVAQK([AEEA-AEEA-γGlu-Nonadecanoyl(19-PO3H2)])AFVQWLIAGGPSSGAPPPS-NH2) | 3740 | 316 | 4170 | 543 | 286 | 254 | 2300 | 6.67 | 102 | at least 50% | –
2 | CC[C@H](C)[C@H](NC(=O)[C@H](CC(C)C)NC(=O)[C@H](Cc1c[nH]c2ccccc12)NC(=O)[C@H](CCC(N)=O)NC(=O)[C@@H](NC(=O)[C@H](Cc1ccccc1)NC(=O)[C@H](C)NC(=O)[C@H](CCCCNC(=O)COCCOCCNC(=O)COCCOCCNC(=O)CC[C@H](NC(=O)CCCCCCCCCCCCCCCCCCP(=O)(O)O)C(=O)O)NC(=O)[C@H](CCC(N)=O)NC(=O)[C@H](C)NC(=O)[C@@H](NC(=O)[C@H](CCCCN)NC(=O)[C@H](CC(=O)O)NC(=O)[C@H](CC(C)C)NC(=O)C(C)(C)NC(=O)[C@@H](NC(=O)[C@H](CO)NC(=O)[C@H](Cc1ccc(O)cc1)NC(=O)[C@H](CC(=O)O)NC(=O)[C@H](CO)NC(=O)[C@@H](NC(=O)[C@H](Cc1ccccc1)NC(=O)[C@@H](NC(=O)CNC(=O)[C@H](CCC(=O)O)NC(=O)C(C)(C)NC(=O)[C@@H](N)Cc1ccc(O)cc1)[C@@H](C)O)[C@@H](C)O)[C@@H](C)CC)[C@@H](C)O)C(C)C)C(=O)N[C@@H](C)C(=O)NCC(=O)NCC(=O)N1CCC[C@H]1C(=O)N[C@@H](CO)C(=O)N[C@@H](CO)C(=O)NCC(=O)N[C@@H](C)C(=O)N1CCC[C@H]1C(=O)N1CCC[C@H]1C(=O)N1CCC[C@H]1C(=O)N[C@@H](CO)C(N)=O [Compound 23] (H-Y[Aib]EGTFTSDYSI[Aib]LDKTAQK([AEEA-AEEA-γGlu-Nonadecanoyl(19-PO3H2)])AFVQWLIAGGPSSGAPPPS-NH2) | 3120 | 400 | 5630 | 873 | 574 | 439 | 2940 | 34.7 | 159 | at least 50% | more than twice an long as compared to tirzepatide
3 | CC[C@H](C)[C@H](NC(=O)[C@H](CC(C)C)NC(=O)[C@H](Cc1c[nH]c2ccccc12)NC(=O)[C@H](CCC(N)=O)NC(=O)[C@@H](NC(=O)[C@H](Cc1ccccc1)NC(=O)[C@H](C)NC(=O)[C@H](CCC(N)=O)NC(=O)[C@H](CCC(N)=O)NC(=O)[C@H](C)NC(=O)[C@@H](NC(=O)[C@H](CCCCNC(=O)COCCOCCNC(=O)COCCOCCNC(=O)CC[C@H](NC(=O)CCCCCCCCCCCCCCCCCCP(=O)(O)O)C(=O)O)NC(=O)[C@H](CC(=O)O)NC(=O)[C@H](CC(C)C)NC(=O)C(C)(C)NC(=O)[C@@H](NC(=O)[C@H](CO)NC(=O)[C@H](Cc1ccc(O)cc1)NC(=O)[C@H](CC(=O)O)NC(=O)[C@H](CO)NC(=O)[C@@H](NC(=O)[C@H](Cc1ccccc1)NC(=O)[C@@H](NC(=O)CNC(=O)[C@H](CCC(=O)O)NC(=O)C(C)(C)NC(=O)[C@@H](N)Cc1ccc(O)cc1)[C@@H](C)O)[C@@H](C)O)[C@@H](C)CC)[C@@H](C)CC)C(C)C)C(=O)N[C@@H](C)C(=O)NCC(=O)NCC(=O)N1CCC[C@H]1C(=O)N[C@@H](CO)C(=O)N[C@@H](CO)C(=O)NCC(=O)N[C@@H](C)C(=O)N1CCC[C@H]1C(=O)N1CCC[C@H]1C(=O)N1CCC[C@H]1C(=O)N[C@@H](CO)C(N)=O [Compound 15] (H-Y[Aib]EGTFTSDYSI[Aib]LDK([AEEA-AEEA-γGlu-Nonadecanoyl(19-PO3H2)])IAQQAFVQWLIAGGPSSGAPPPS-NH2) | 3830 | 347 | 807 | 110 | 185 | 182 | 2520 | 9.33 | 60 | – | –
4 | CC[C@H](C)[C@H](NC(=O)[C@H](CC(C)C)NC(=O)[C@H](Cc1c[nH]c2ccccc12)NC(=O)[C@H](CCC(N)=O)NC(=O)[C@@H](NC(=O)[C@H](Cc1ccccc1)NC(=O)[C@H](C)NC(=O)[C@H](CCCCNC(=O)COCCOCCNC(=O)COCCOCCNC(=O)CC[C@H](NC(=O)CCCCCCCCCCCCCCCCCCP(=O)(O)O)C(=O)O)NC(=O)[C@H](CCC(N)=O)NC(=O)[C@H](CO)NC(=O)[C@@H](NC(=O)[C@H](CCCCN)NC(=O)[C@H](CC(=O)O)NC(=O)[C@H](CC(C)C)NC(=O)C(C)(C)NC(=O)[C@@H](NC(=O)[C@H](CO)NC(=O)[C@H](Cc1ccc(O)cc1)NC(=O)[C@H](CC(=O)O)NC(=O)[C@H](CO)NC(=O)[C@@H](NC(=O)[C@H](Cc1ccccc1)NC(=O)[C@@H](NC(=O)CNC(=O)[C@H](CCC(=O)O)NC(=O)C(C)(C)NC(=O)[C@@H](N)Cc1ccc(O)cc1)[C@@H](C)O)[C@@H](C)O)[C@@H](C)CC)[C@@H](C)CC)C(C)C)C(=O)N[C@@H](C)C(=O)NCC(=O)NCC(=O)N1CCC[C@H]1C(=O)N[C@@H](CO)C(=O)N[C@@H](CO)C(=O)NCC(=O)N[C@@H](C)C(=O)N1CCC[C@H]1C(=O)N1CCC[C@H]1C(=O)N1CCC[C@H]1C(=O)N[C@@H](CO)C(N)=O [Compound 24] (H-Y[Aib]EGTFTSDYSI[Aib]LDKISQK([AEEA-AEEA-γGlu-Nonadecanoyl(19-PO3H2)])AFVQWLIAGGPSSGAPPPS-NH2) | 6830 | 686 | 11400 | 1160 | 348 | 302 | 2130 | 22.7 | 111 | at least 50% | –
5 | CC[C@H](C)[C@H](NC(=O)[C@H](CC(C)C)NC(=O)[C@H](Cc1c[nH]c2ccccc12)NC(=O)[C@H](CCC(N)=O)NC(=O)[C@@H](NC(=O)[C@H](Cc1ccccc1)NC(=O)[C@H](C)NC(=O)[C@H](CCCCNC(=O)COCCOCCNC(=O)COCCOCCNC(=O)CC[C@H](NC(=O)CCCCCCCCCCCCCCCCCCP(=O)(O)O)C(=O)O)NC(=O)[C@H](CCC(N)=O)NC(=O)[C@H](C)NC(=O)[C@@H](NC(=O)[C@H](CCCCN)NC(=O)[C@H](CC(=O)O)NC(=O)[C@H](CC(C)C)NC(=O)[C@H](Cc1ccccc1)NC(=O)[C@@H](NC(=O)[C@H](CO)NC(=O)[C@H](Cc1ccc(O)cc1)NC(=O)[C@H](CC(=O)O)NC(=O)[C@H](CO)NC(=O)[C@@H](NC(=O)[C@H](Cc1ccccc1)NC(=O)[C@@H](NC(=O)CNC(=O)[C@H](CCC(=O)O)NC(=O)C(C)(C)NC(=O)[C@@H](N)Cc1ccc(O)cc1)[C@@H](C)O)[C@@H](C)O)[C@@H](C)CC)C(C)C)C(C)C)C(=O)N[C@@H](C)C(=O)NCC(=O)NCC(=O)N1CCC[C@H]1C(=O)N[C@@H](CO)C(=O)N[C@@H](CO)C(=O)NCC(=O)N[C@@H](C)C(=O)N1CCC[C@H]1C(=O)N1CCC[C@H]1C(=O)N1CCC[C@H]1C(=O)N[C@@H](CO)C(N)=O [Compound 19] (H-Y[Aib]EGTFTSDYSIFLDKVAQK([AEEA-AEEA-γGlu-Nonadecanoyl(19-PO3H2)])AFVQWLIAGGPSSGAPPPS-NH2) | 1340 | 153 | 4440 | 551 | 175 | 159 | 1240 | 20 | 96.7 | at least 50% | –
